Assay results: patent US9056876B2, “Substituted 1H-pyrazolo[3′,4′,4,5]thieno[2,3-b]pyridin-3-amine analogs as positive allosteric modulators of the muscarinic acetylcholine receptor M4” (VANDERBILT UNIVERSITY, priority 2011, dated 2015)

Target: T1, mAChR M4 (UniProt P08173)
T1 construct: hM1 and hM4 cDNAs were purchased from Missouri S&T cDNA Resource
T1 sequence (P08173 1-479): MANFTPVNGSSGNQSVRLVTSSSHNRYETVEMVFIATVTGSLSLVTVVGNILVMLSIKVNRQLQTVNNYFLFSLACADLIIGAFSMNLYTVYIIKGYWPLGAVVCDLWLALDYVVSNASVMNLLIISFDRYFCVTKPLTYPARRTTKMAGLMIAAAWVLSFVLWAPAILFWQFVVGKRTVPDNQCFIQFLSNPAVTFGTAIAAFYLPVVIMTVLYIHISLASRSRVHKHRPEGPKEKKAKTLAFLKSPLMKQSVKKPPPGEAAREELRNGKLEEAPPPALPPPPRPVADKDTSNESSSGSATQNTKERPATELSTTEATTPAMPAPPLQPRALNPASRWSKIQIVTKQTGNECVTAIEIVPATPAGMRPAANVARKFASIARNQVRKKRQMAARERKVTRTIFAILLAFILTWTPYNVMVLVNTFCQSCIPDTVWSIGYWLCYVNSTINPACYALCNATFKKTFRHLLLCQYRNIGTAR
Experiment: mAChR M4 cell-based functional assay (calcium mobilization, Fluo-4, FDSS)
Conditions: for Emax (%)*: % ACh maximum at 30 μM; for pEC50: positive allosteric modulator activity, EC20 acetylcholine response; for pEC50 / EC50: CHO-K1 cells; for EC50: positive allosteric modulator activity: concentration-dependent increase in the EC20 acetylcholine response, >10 μM estimated for low potency (no plateau)
Text: Chinese hamster ovary (CHO-K1) cells stably expressing rat (r)M1 were purchased from the American Type Culture Collection and cultured according to their indicated protocol. CHO cells stably expressing human (h)M2, hM3, and hM5 were described previously (Levey A I, et al., (1991) J Neurosci 11:3218-3226.); hM1 and hM4 cDNAs were purchased from Missouri S&T cDNA Resource; rM4 cDNA was provided by T. I. Bonner (National Institutes of Health, Bethesda, Md.). rM2 and rM3 were cloned from a rat brain cDNA library and sequence verified. hM1, rM2, rM3, hM4, and rM4 cDNAs were used to stably transfect CHO-K1 cells purchased from the American Type Culture Collection using Lipofectamine-2000. To make stable rM2, hM2, rM3, hM4, and rM4 cell lines for use in calcium mobilization assays, these cells also were stably transfected with a chimeric G-protein (Gqi5) (provided by B. R. Conklin, University of California, San Francisco) using Lipofectamine 2000. rM1, hM1, rM3, hM3, rM5, and hM5 cells were grown in Ham's F-12 medium containing 10% heat-inactivated fetal bovine serum (FBS), 20 mM HEPES, and 50 µg/mL G418 sulfate. rM2-Gqi5, hM2-Gqi5, and hM4-Gqi5 cells were grown in the same medium also containing 500 µg/mL Hygromycin B. Stable rM4-Gqi5 cells were grown in DMEM containing 10% heat-inactivated FBS, 20 mM HEPES, 400 µg/mL G418 sulfate, and 500 µg/mL Hygromycin B.
For high throughput measurement of agonist-evoked increases in intracellular calcium, CHO-K1 cells stably expressing the target muscarinic receptor were plated in growth medium lacking G418 and hygromycin at 15,000 cells/20 μL/well in Greiner 384-well black-walled, tissue culture (TC)-treated, clear-bottom plates (VWR). Cells were incubated overnight at 37° C. and 5% CO2. The next day, cells were washed using an ELX 405 (BioTek) with four washes (80 μL) of assay buffer then aspirated to 20 μL. Next, […] of 16 μM Fluo-4/acetoxymethyl ester (Invitrogen, Carlsbad, Calif.) prepared as a 2.3 mM stock in DMSO and mixed in a 1:1 ratio with 10% (w/v) Pluronic F-127 and diluted in assay buffer was added to the wells and the cell plates were incubated for 50 min at 37° C. and 5% CO2. Dye was removed by washing with the ELX 405 (four 80 μL washes of assay buffer) then aspirated to 20 μL. Compound master plates were formatted in an 11 point CRC format (1:3 dilutions) in 100% DMSO with a starting concentration of 10 mM using the BRAVO liquid handler (Agilent). Test compound CRCs were then transferred to daughter plates (240 nL) using the Echo acoustic plate reformatter (Labcyte, Sunnyvale, Calif.) and then diluted into assay buffer (40 μL) to a 2× stock using a Thermo Fisher Combi (Thermo Fisher Scientific, Waltham, Mass.).
Calcium flux was measured using the Functional Drug Screening System (FDSS) 6000 (Hamamatsu Corporation, Tokyo, Japan) as an increase in the fluorescent static ratio. Compounds were applied to cells (20 μL, 2×) using the automated system of the FDSS 6000 at 4 s into the 300 s protocol and the data were collected at 1 Hz. At 144 s into the 300 s protocol, 10 μL of an EC20 concentration of the muscarinic receptor agonist acetylcholine was added (5×), followed by the addition of 12 μL an EC80 concentration of acetylcholine at the 230 s time point (5×). Agonist activity was analyzed as a concentration-dependent increase in calcium mobilization upon compound addition. Positive allosteric modulator activity was analyzed as a concentration-dependent increase in the EC20 acetylcholine response. Antagonist activity was analyzed as a concentration-dependent decrease in the EC80 acetylcholine response. Concentration-response curves were generated using a four-parameter logistical equation in XLfit curve fitting software (IDBS, Bridgewater, N.J.) for Excel (Microsoft, Redmond, Wash.) or Prism (GraphPad Software, Inc., San Diego, Calif.). […]

SMILES | Emax (%)* [%] | pEC50 | EC50 [µM]
COc1ccc(CNc2nn(C)c3c2sc2nc(C)cc(C)c23)cc1 [Compound 38, N-(4-methoxybenzyl)-1,6,8-trimethyl-1H-pyrazolo[3′,4′:4,5]thieno[2,3-b]pyridin-3-amine] | 72 | 6.66 | 0.22
Cc1cc(C)c2c(n1)sc1c(NCc3ccc(F)cc3)nn(C)c12 [Compound 39, N-(4-fluorobenzyl)-1,6,8-trimethyl-1H-pyrazolo[3′,4′:4,5]thieno[2,3-b]pyridin-3-amine] | 68 | 6.30 | 0.5
Cc1cc(C)c2c(n1)sc1c(NCc3ccncc3)nn(C)c12 [Compound 42, 1,6,8-trimethyl-N-(pyridin-4-ylmethyl)-1H-pyrazolo[3′,4′:4,5]thieno[2,3-b]pyridin-3-amine] | 93 | 6.82 | 0.15
Cc1ccc2c(n1)sc1c(NCC3CC3)n[nH]c12 [Compound 43, N-(cyclopropylmethyl)-6-methyl-1H-pyrazolo[3′,4′:4,5]thieno[2,3-b]pyridin-3-amine] | 64 | 5.35 | 4.5
Cc1ccc2c(n1)sc1c(NCc3ccco3)n[nH]c12 [Compound 44, N-(furan-2-ylmethyl)-6-methyl-1H-pyrazolo[3′,4′:4,5]thieno[2,3-b]pyridin-3-amine] | 62 | 5.30 | 5
Cc1ccc2c(n1)sc1c(NC(C)C)n[nH]c12 [Compound 45, N-isopropyl-6-methyl-1H-pyrazolo[3′,4′:4,5]thieno[2,3-b]pyridin-3-amine] | 37 | <5.00 | > 10
Cc1cc(C)c2c(n1)sc1c(NC(=O)C3CC3)nn(C)c12 [Compound 46, N-(1,6,8-trimethyl-1H-pyrazolo[3′,4′:4,5]thieno[2,3-b]pyridin-3-yl)cyclopropanecarboxamide] | 44 | <5.00 | > 10
Cc1ccc2c(n1)sc1c(NCc3ccccc3)n[nH]c12 [Compound 50, N-benzyl-6-methyl-1H-pyrazolo[3′,4′:4,5]thieno[2,3-b]pyridin-3-amine] | 57 | 5.60 | 2.5
Cc1ccc2c(n1)sc1c(NCC3CC3)nn(C)c12 [Compound 51, N-(cyclopropylmethyl)-1,6-dimethyl-1H-pyrazolo[3′,4′:4,5]thieno[2,3-b]pyridin-3-amine] | 73 | 5.89 | 1.3
COc1ccc(CNc2nn(C)c3c2sc2nc(C)ccc23)cc1 [Compound 55, N-(4-methoxybenzyl)-1,6-dimethyl-1H-pyrazolo[3′,4′:4,5]thieno[2,3-b]pyridin-3-amine] | 63 | 6.02 | 0.96
Cc1cc(C)c2c(n1)sc1c(NCc3ccccc3F)nn(C)c12 [Compound 57, N-(2-fluorobenzyl)-1,6,8-trimethyl-1H-pyrazolo[3′,4′:4,5]thieno[2,3-b]pyridin-3-amine] | 70 | 6.72 | 0.19
Cc1cc(C)cc(CNc2nn(C)c3c2sc2nc(C)cc(C)c23)c1 [Compound 58, N-(3,5-dimethylbenzyl)-1,6,8-trimethyl-1H-pyrazolo[3′,4′:4,5]thieno[2,3-b]pyridin-3-amine] | 37 | <5.00 | > 10

Next, values leading:

Emax (%)* [%] | pEC50 | EC50 [µM] | SMILES
85 | 6.96 | 0.11 | Cc1cc(C)c2c(n1)sc1c(NCc3ccco3)nn(C)c12 [Compound 40, N-(furan-2-ylmethyl)-1,6,8-trimethyl-1H-pyrazolo[3′,4′:4,5]thieno[2,3-b]pyridin-3-amine]
87 | 6.11 | 0.78 | Cc1cc(C)c2c(n1)sc1c(NC(C)C)nn(C)c12 [Compound 41, N-isopropyl-1,6,8-trimethyl-1H-pyrazolo[3′,4′:4,5]thieno[2,3-b]pyridin-3-amine]
43 | 5.54 | 2.9 | CCC(=O)Nc1nn(C)c2c1sc1nc(C)cc(C)c12 [Compound 47, N-(1,6,8-trimethyl-1H-pyrazolo[3′,4′:4,5]thieno[2,3-b]pyridin-3-yl)propionamide]
38 | <5.00 | > 10 | COc1cc(OC)cc(C(C)Nc2nn(C)c3c2sc2nc(C)cc(C)c23)c1 (stereo not drawn) [Compound 48, N-(1-(3,5-dimethoxyphenyl)ethyl)-1,6,8-trimethyl-1H-pyrazolo[3′,4′:4,5]thieno[2,3-b]pyridin-3-amine]
37 | 5.47 | 3.4 | Cc1ccc2c(n1)sc1c(NCc3ccc(Cl)cc3)n[nH]c12 [Compound 49, N-(4-chlorobenzyl)-6-methyl-1H-pyrazolo[3′,4′:4,5]thieno[2,3-b]pyridin-3-amine]
64 | 5.82 | 1.5 | Cc1ccc2c(n1)sc1c(NCc3ccco3)nn(C)c12 [Compound 52, N-(furan-2-ylmethyl)-1,6-dimethyl-1H-pyrazolo[3′,4′:4,5]thieno[2,3-b]pyridin-3-amine]
70 | 6.08 | 0.84 | Cc1ccc2c(n1)sc1c(NCc3ccccc3)nn(C)c12 [Compound 53, N-benzyl-1,6-dimethyl-1H-pyrazolo[3′,4′:4,5]thieno[2,3-b]pyridin-3-amine]
71 | 6.06 | 0.88 | Cc1ccc2c(n1)sc1c(NCCC(C)C)nn(C)c12 [Compound 54, N-isopentyl-1,6-dimethyl-1H-pyrazolo[3′,4′:4,5]thieno[2,3-b]pyridin-3-amine]
56 | <5.00 | > 10 | Cc1ccc2c(n1)sc1c(NCc3ccc(Cl)cc3)nn(C)c12 [Compound 56, N-(4-chlorobenzyl)-1,6-dimethyl-1H-pyrazolo[3′,4′:4,5]thieno[2,3-b]pyridin-3-amine]
57 | 5.60 | 2.5 | Cc1ccc(CNc2nn(C)c3c2sc2nc(C)cc(C)c23)c(C)c1 [Compound 59, N-(2,4-dimethylbenzyl)-1,6,8-trimethyl-1H-pyrazolo[3′,4′:4,5]thieno[2,3-b]pyridin-3-amine]
63 | <5.00 | > 10 | Cc1cc(C)c2c(n1)sc1c(NCc3ccc(F)c(F)c3)nn(C)c12 [Compound 60, N-(3,4-difluorobenzyl)-1,6,8-trimethyl-1H-pyrazolo[3′,4′:4,5]thieno[2,3-b]pyridin-3-amine]
